Experimental data from article PMC3216401 (Antiviral research, 2011).
pIC50: −log10 of the molar value. Several values for one entry are separate records, joined by “and”; a condition that tells them apart may be missing. Equal values may be shown once. Read-outs that look alike come from different tables or passages of the source.

Key:
[1] = tested on: A/Hong Kong/213/2003H (A/Hong Kong/213/2003 × Ann Arbor/6/60 hybrid); assay: microbe, parasite or virus in culture; assay type: cell-based; conditions: Influenza A virus, MDCK, read-out: IC90, VYR Assay
B/Florida/4/2006 [2] = assay: microbe, parasite or virus in culture; conditions: Influenza B virus, MDCK, read-out: IC50, Neutral Red Uptake Assay
[3] = tested on: A/Brisbane/10/2007 (H3N2)
A/Duck/MN/1525/81 (H5N1) [4] = tested on: A/Duck/MN/1525/81 (H5N1)
[5] = tested on: influenza A/CA/07/2009 (H1N1)
A/Gull/PA/4175/83 (H5N1) [6] = assay: microbe, parasite or virus in culture; conditions: Influenza A virus, H5N1, MDCK, read-out: IC50, Visual Assay
A/Gull/PA/4175/83 (H5N1) [7] = assay: microbe, parasite or virus in culture; assay type: cell-based; conditions: Influenza A virus, H5N1, MDCK, read-out: IC90, VYR Assay
[8] = tested on: A/Vietnam/1203/04H (A/Vietnam/1203/04 × Ann Arbor/6/60 hybrid); assay: microbe, parasite or virus in culture; conditions: Influenza A virus, H1N1|H5N1, MDCK, read-out: IC50, Neutral Red Uptake Assay
[9] = tested on: A/Vietnam/1203/04H (A/Vietnam/1203/04 × Ann Arbor/6/60 hybrid); assay: microbe, parasite or virus in culture; conditions: Influenza A virus, H1N1|H5N1, MDCK, read-out: IC50, Visual Assay
[10] = tested on: A/Hong Kong/213/2003H (A/Hong Kong/213/2003 × Ann Arbor/6/60 hybrid); assay: microbe, parasite or virus in culture; conditions: Influenza A virus, H1N1|H5N1, MDCK, read-out: IC50, Neutral Red Uptake Assay
A/Duck/MN/1525/81 (H5N1) [11] = assay: microbe, parasite or virus in culture; assay type: cell-based; conditions: Influenza A virus, H5N1, MDCK, read-out: IC90, VYR Assay
B/Malaysia/2506/2004 [12] = tested on: B/Malaysia/2506/2004
[13] = tested on: A/Vietnam/1203/04H (A/Vietnam/1203/04 × Ann Arbor/6/60 hybrid)
[14] = tested on: A/Brisbane/10/2007 (H3N2); assay: microbe, parasite or virus in culture; assay type: cell-based; conditions: Influenza A virus, H3N2, MDCK, read-out: IC90, VYR Assay
[15] = tested on: A/Hong Kong/213/2003H (A/Hong Kong/213/2003 × Ann Arbor/6/60 hybrid); assay: microbe, parasite or virus in culture; conditions: Influenza A virus, H1N1|H5N1, MDCK, read-out: IC50, Visual Assay
A/Gull/PA/4175/83 (H5N1) [16] = tested on: A/Gull/PA/4175/83 (H5N1)
[17] = tested on: Influenza A/Sydney/05/97 (H3N2); assay: microbe, parasite or virus in culture; conditions: H3N2, MDCK, read-out: IC50, Neutral Red Uptake Assay
[18] = tested on: Influenza A/Sydney/05/97 (H3N2); assay: microbe, parasite or virus in culture; conditions: H3N2, MDCK, read-out: IC50, Visual Assay
[19] = tested on: influenza A/CA/07/2009 (H1N1); assay: microbe, parasite or virus in culture; assay type: cell-based; conditions: H1N1, MDCK, read-out: IC90, VYR Assay
[20] = tested on: A/Brisbane/10/2007 (H3N2); assay: microbe, parasite or virus in culture; conditions: Influenza A virus, H3N2, MDCK, read-out: IC50, Neutral Red Uptake Assay
[21] = tested on: influenza A/CA/07/2009 (H1N1); assay: microbe, parasite or virus in culture; conditions: H1N1, MDCK, read-out: IC50, Visual Assay
[22] = tested on: A/Brisbane/10/2007 (H3N2); assay: microbe, parasite or virus in culture; conditions: Influenza A virus, H3N2, MDCK, read-out: IC50, Visual Assay
B/Malaysia/2506/2004 [23] = assay: microbe, parasite or virus in culture; conditions: Influenza B virus, MDCK, read-out: IC50, Visual Assay
[24] = tested on: Influenza A/Sydney/05/97 (H3N2); assay: microbe, parasite or virus in culture; assay type: cell-based; conditions: H3N2, MDCK, read-out: IC90, VYR Assay
in vitro = conditions: dog
[25] = tested on: Influenza A/Sydney/05/97 (H3N2)
[26] = tested on: influenza A/CA/07/2009 (H1N1); remark: listed apart in the source
[27] = tested on: influenza A/Vietnam/1203/2004 H5N1 virus; conditions: in vivo
B/Florida/4/2006 [28] = tested on: B/Florida/4/2006
B/Florida/4/2006 [29] = tested on: B/Florida/4/2006; remark: listed apart in the source
[30] = tested on: A/Vietnam/1203/04H (A/Vietnam/1203/04 × Ann Arbor/6/60 hybrid); assay: microbe, parasite or virus in culture; assay type: cell-based; conditions: Influenza A virus, MDCK, read-out: IC90, VYR Assay
A/Duck/MN/1525/81 (H5N1) [31] = assay: microbe, parasite or virus in culture; conditions: Influenza A virus, H5N1, MDCK, read-out: IC50, Visual Assay
B/Florida/4/2006 [32] = assay: microbe, parasite or virus in culture; assay type: cell-based; conditions: Influenza B virus, MDCK, read-out: IC90, VYR Assay
B/Florida/4/2006 [33] = assay: microbe, parasite or virus in culture; conditions: Influenza B virus, MDCK, read-out: IC50, Visual Assay

Nc1ccn([C@@H]2O[C@H](CO)[C@@H](O)[C@H]2F)c(=O)n1 [2’-deoxy-2’-fluorocytidine, 2'-deoxy-2'-fluorocytidine]
IC90 [1]: 5100 nM
pIC50 (B/Florida/4/2006 [2]): 5.85
SI (CC50/IC50), Neutral Red Uptake Assay [3]: >7.1
SI (CC50/IC50), Neutral Red Uptake Assay (A/Duck/MN/1525/81 (H5N1) [4]): >480
SI (CC50/IC50), Visual Assay [5]: >31
pIC50 (A/Gull/PA/4175/83 (H5N1) [6]): 6.04
IC90 (A/Gull/PA/4175/83 (H5N1) [7]): 6100 nM
pIC50 [8]: 5.47
pIC50 [9]: 5.68
pIC50 [10]: 5.14
IC90 (A/Duck/MN/1525/81 (H5N1) [11]): 5900 nM
SI (CC50/IC50), Visual Assay (B/Malaysia/2506/2004 [12]): >53
SI (CC50/IC50), Neutral Red Uptake Assay [13]: >29
IC90 [14]: 6800 nM
pIC50 [15]: 5.89
SI (CC50/IC50), Visual Assay (A/Gull/PA/4175/83 (H5N1) [16]): >110
pIC50 [17]: 5.60
pIC50 [18]: 6.23
IC90 [19]: 4600 nM
pIC50 [20]: 4.85
pIC50 [21]: 5.49
pIC50 [22]: 6.00
pIC50 (B/Malaysia/2506/2004 [23]): 5.72
IC90 [24]: 6700 nM
CC50 (in vitro; CC50, Visual Assay): > 100000 nM
SI (CC50/IC50), Neutral Red Uptake Assay [25]: >40
SI (CC50/IC50), Neutral Red Uptake Assay [26]: >24
Maximum tolerated effective dose ([27]; female, BALB/c, mouse, ip): 60 mg/kg/day
Lung Score ± SD ([27]; mouse): 0.4 ± 0.25 and 0.2 ± 0.27
Mice protected from lethal effects ([27]; mouse): 60%
Protection from death, i.p. ([27]; mouse): partially, but significantly protected from death
Protection from mortality, per os ([27]; mouse): not protected from mortality
Virus Lung Titers ± SD ([27]; mouse): 3.60 ± 1.303 Log10/g and 4.01 ± 0.713 Log10/g
SI (CC50/IC50), Neutral Red Uptake Assay (B/Florida/4/2006 [28]): >71
SI (CC50/IC50), Visual Assay (B/Florida/4/2006 [29]): >100
IC90 [30]: 2900 nM
pIC50 (A/Duck/MN/1525/81 (H5N1) [31]): 6.60
IC90 (B/Florida/4/2006 [32]): 2100 nM
pIC50 (B/Florida/4/2006 [33]): 6.00

Nc1ccn([C@@H]2O[C@H](CO)[C@@H](O)C2(F)F)c(=O)n1 [2’-deoxy-2’, 2’-difluorocytidine, reference compound]
IC90 [1]: 40 nM
pIC50 (B/Florida/4/2006 [2]): > 6.49
SI (CC50/IC50), Neutral Red Uptake Assay [3]: 8.1
SI (CC50/IC50), Neutral Red Uptake Assay (A/Duck/MN/1525/81 (H5N1) [4]): >880
SI (CC50/IC50), Visual Assay [5]: 11.7
pIC50 (A/Gull/PA/4175/83 (H5N1) [6]): 6.68
IC90 (A/Gull/PA/4175/83 (H5N1) [7]): 130 nM
pIC50 [8]: > 6.49
pIC50 [9]: > 6.49
pIC50 [10]: 7.19
IC90 (A/Duck/MN/1525/81 (H5N1) [11]): 250 nM
SI (CC50/IC50), Visual Assay (B/Malaysia/2506/2004 [12]): >3100
SI (CC50/IC50), Neutral Red Uptake Assay [13]: >500
IC90 [14]: 140 nM
pIC50 [15]: > 7.49
SI (CC50/IC50), Visual Assay (A/Gull/PA/4175/83 (H5N1) [16]): >480
pIC50 [17]: 5.92
pIC50 [18]: 6.74
IC90 [19]: 130 nM
pIC50 [20]: 6.80
pIC50 [21]: 6.74
pIC50 [22]: 6.89
pIC50 (B/Malaysia/2506/2004 [23]): > 7.49
IC90 [24]: 1600 nM
CC50 (in vitro; CC50 values, range, visual assay): 2100 to 530000 nM
SI (CC50/IC50), Neutral Red Uptake Assay [25]: 5.7
SI (CC50/IC50), Neutral Red Uptake Assay [26]: 6.9
Inhibition in the H5N1 mouse model [27]: not inhibitory
Toxicity in the H5N1 mouse model [27]: very toxic
Protection against lethal challenge ([27]; mouse): not significantly effective
SI (CC50/IC50), Neutral Red Uptake Assay (B/Florida/4/2006 [28]): >440
SI (CC50/IC50), Visual Assay (B/Florida/4/2006 [29]): >1400
IC90 [30]: 320 nM
pIC50 (A/Duck/MN/1525/81 (H5N1) [31]): > 6.49
IC90 (B/Florida/4/2006 [32]): 1700 nM
pIC50 (B/Florida/4/2006 [33]): > 6.49
